Results reported in US20070166710A1, “Methods for inhibiting adipogenesis and for treating type 2 diabetes” (priority 2003, published 2007).

Legend:
Foxa-2 (transfected) = biological target: T1, Foxa-2 (transfected) (UniProt P32182); test: cell_activity
T1 sequence: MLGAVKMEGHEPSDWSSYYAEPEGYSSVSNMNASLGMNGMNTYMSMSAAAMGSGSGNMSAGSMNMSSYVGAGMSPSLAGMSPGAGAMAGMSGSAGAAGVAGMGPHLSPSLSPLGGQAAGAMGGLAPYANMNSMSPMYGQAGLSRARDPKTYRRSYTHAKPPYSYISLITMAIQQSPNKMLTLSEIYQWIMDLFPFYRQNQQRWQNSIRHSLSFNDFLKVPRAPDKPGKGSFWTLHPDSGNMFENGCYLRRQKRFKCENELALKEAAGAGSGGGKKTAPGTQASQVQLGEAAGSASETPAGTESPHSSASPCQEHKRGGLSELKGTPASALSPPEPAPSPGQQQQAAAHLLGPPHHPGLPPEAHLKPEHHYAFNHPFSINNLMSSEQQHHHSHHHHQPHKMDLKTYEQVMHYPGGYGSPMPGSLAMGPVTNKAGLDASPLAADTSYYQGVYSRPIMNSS

Foxa-2 activity = test: Transactivation assay, HepG2 cells transfected with Foxa-2 and pPepck-Luc or p6xCdx-TkLuc; type: cell-based, rat; settings: coincubation, inhibitor 10 μM, insulin 100 nM
Procedure: Transfections and Transactivation assay. HepG2 cells were grown to 60-70% confluence in a 24-well dish and transfected with 50 ng of each reporter gene (p6xCdx-TkLuc or pPEPCK-Luc), pCMV-β-Gal as internal reference and the expression vectors for wildtype or mutant Foxa-1 and Foxa-2 and human Akt1/Akt2 using the transfection reagent Fugene6 (Roche). Cells were grown for 48 hours and luciferase activity was measured using the Luciferase Detection System (Promega). Luciferase was normalized for transfection efficiency by β-galactosidase activity.
To analyze whether Foxa-2 activity is regulated by insulin, HepG2 cells were transfected with a Foxa-2 expression vector and either plasmid pPepck-Luc or p6xCdx-TkLuc that contain a 621 bp promoter framnent of the human PEPCK gene or six Foxa-2 binding sites of the Cdx-2 gene upstream of a minimal promoter and the luciferase gene, respectively.

Pepck, G6pc and Igfbp-1 = test: mRNA levels of Foxa-2 target genes in primary hepatocytes (RT-PCR); type: cell-based; settings: inhibitor together with insulin
Procedure: FIGS. 10a-d depict the effect of insulin on Foxa-2 activity. FIG. 10a is a bar graph depicting relative Foxa-2 activity in HepG2 cells transfected with an expression vector for Foxa-2 and […]-Luc (gray bars) or p6xCdx-TkLuc (black bars). Cells were treated with insulin alone or in the presence of Ly294002 or PD98059. FIG. 10b is a bar graph depicting relative Foxa-2 activity in HepG2 cells transfected with p6xCdx-TkLuc and treated with insulin alone or in the presence of Ly294002 or PD98059. […] FIG. 10d is a bar graph depicting relative Foxa-2 activity in HepG2 cells transfected with an expression vector for Foxa-1, Foxa-2, Akt or Akt[…] alone or in combination, using p6xCdx-TkLuc as reporter gene. In all experiments luciferase activity was normalized to β-Gal activity. […] Levels of mRNA were analyzed to determine whether inhibition of Foxa-2 target gene expression by insulin is controlled at a transcriptional or posttranscriptional level. The mRNA levels of Pepck, G6pc and Igfbp-1 in primary hepatocytes that were cultured either in the presence or absence of insulin, PI3-kinase or MAPKK1 inhibitors were measured.

Foxa-2 [1] = test: Immunofluorescence of subcellular distribution of endogenous Foxa-2 in HepG2 cells; type: cell-based; settings: inhibitor in the presence of insulin (50 nM)
Procedure: Immunofluorescence microscopy. Cells were fixed for 30 minutes at room temperature with 2% paraformaldehyde. For immunofluorescent detection of Foxa-1 or Foxa-2, fixed cells were incubated with respective polyclonal antibodies (1:100) (Ruiz i Altaba et al. (1993) Mech. Dev. 44: 91-108) overnight at 4° C. After washing, the cells were treated with anti rabbit IgG secondary antibody linked to Alexa Fluor 488 (Molecular Probes). Immunofluorescent staining was visualized using laser-scanning micrsocopy. To determine whether Akt-induced phosporylation of Foxa-2 has an effect on the subcellular distribution of this transcription factor, the following experiment was performed. HepG2 cells were grown to 60% confluency and endogenous Foxa-1 and Foxa-2 proteins were visualized by immunofluorescence after staining with anti Foxa-1 and Foxa-2 antibodies. Cells were either examined in the absence or presence of insulin (50 nM) and/or Ly294002 or PD98059, and after transfection with either Akt1 or Akt2 expression vectors (FIG. 5B). […] Treatment of cells with MAPKK1 inhibitor PD98059 had no effect on insulin stimulated nuclear exclusion of Foxa-2. The subcellular distribution of Foxa-2 in cells that were stimulated with insulin and expressed a dominant negative form of Akt (Akt[…]) were resistant to nuclear exclusion. […]

[2] = biological target: T2, GST-Foxa-2 (recombinant, from E. coli BL21, pGEX-4T2) (UniProt P32182)
T2 sequence: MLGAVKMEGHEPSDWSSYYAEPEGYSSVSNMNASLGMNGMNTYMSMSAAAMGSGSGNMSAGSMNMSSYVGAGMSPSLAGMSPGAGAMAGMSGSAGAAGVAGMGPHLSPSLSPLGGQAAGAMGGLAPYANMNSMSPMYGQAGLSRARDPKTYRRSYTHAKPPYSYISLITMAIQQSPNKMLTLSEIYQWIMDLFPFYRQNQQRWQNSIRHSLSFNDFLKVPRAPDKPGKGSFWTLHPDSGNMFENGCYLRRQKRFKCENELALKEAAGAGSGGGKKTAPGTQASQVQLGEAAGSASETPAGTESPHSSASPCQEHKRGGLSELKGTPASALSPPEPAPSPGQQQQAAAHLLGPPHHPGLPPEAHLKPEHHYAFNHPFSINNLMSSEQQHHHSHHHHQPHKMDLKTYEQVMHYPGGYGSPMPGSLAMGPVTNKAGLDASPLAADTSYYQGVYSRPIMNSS

[3] = biological target: T3, GST-Foxa-2T156A (recombinant, from E. coli BL21, pGEX-4T2) (UniProt P32182)
T3 sequence: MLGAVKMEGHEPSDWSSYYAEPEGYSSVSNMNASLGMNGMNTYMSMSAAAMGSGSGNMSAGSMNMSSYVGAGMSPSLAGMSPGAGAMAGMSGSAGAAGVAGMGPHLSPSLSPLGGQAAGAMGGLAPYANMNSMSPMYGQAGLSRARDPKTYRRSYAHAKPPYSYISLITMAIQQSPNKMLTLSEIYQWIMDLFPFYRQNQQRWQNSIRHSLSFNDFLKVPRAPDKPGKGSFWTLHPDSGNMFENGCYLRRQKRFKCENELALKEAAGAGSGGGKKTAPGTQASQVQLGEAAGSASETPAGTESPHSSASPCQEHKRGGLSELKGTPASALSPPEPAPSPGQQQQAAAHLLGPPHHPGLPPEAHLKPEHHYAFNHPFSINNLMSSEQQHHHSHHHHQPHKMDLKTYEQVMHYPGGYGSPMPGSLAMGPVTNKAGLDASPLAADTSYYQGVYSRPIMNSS

Foxa-2 expression [4] = test: Foxa-2 expression in primary adipocytes from lean wildtype C57B6 mice, semiquantitative RT-PCR; type: cell-based; settings: 60 hours; leptin 100 ng/ml, TNF-α 5 ng/ml, adiponectin 500 ng/ml, glucagon 100 nM, glucose 20 mmol/L
Procedure: (§1) Total RNA was extracted from cells and EBs using Trizol following manufacturer's instructions (Life Technologies, Inc.). […] The cDNAs provided templates for polymerase chain reactions (PCRs) using specific primers at annealing temperatures ranging between 60 and 65° C. in the presence of dNTPs, [α^-32P]dCTP, and Taq DNA polymerase. […] Primary adipocytes were isolated as described by Rodbell (1964) J. Biol. Chem. 239:375-380. […] (1995) J. Cell. Biochem. 58:435-463. The reaction was stopped by spinning through dinonyl […] oil and the radioactivity quantified by scintillation counting. […] (1995) Am. J. Physiol. 268:[…]-[…]. Fatty acid de novo synthesis was analyzed by saponification of total lipids as described by […] et al. (1978) J. […] Incorporation into lipid glycerol was calculated by subtracting fatty acid radioactive label from total lipid radioactive label. Primary adipocytes were isolated from lean wildtype C57B6 mice and cultured in MEM medium (control) or in the presence of insulin (100 nM; 24 hours and 60 hours, respectively) or rosiglitazone (50 μM), WY14,643 (100 μM), dexametason (1 μM), leptin (100 ng/ml), TNF-α (5 ng/ml), adiponectin (500 ng/ml) and glucagons (100 nM) for 60 hours. Gene expression was measured by semiquantitative RT-PCR. Steady state mRNA levels of Hprt were used as a control and indicate that each lane contains similar amounts of mRNA. Reactions were also assayed in the absence of reverse transcriptase, showing that mRNA was not contaminated with genomic DNA.

Foxa-2 expression [5] = test: Foxa-2 expression in primary adipocytes from ob/ob mice, semiquantitative RT-PCR; type: cell-based; settings: 60 hours
Procedure: as §1, with “ob/ob” for “lean wildtype C57B6”, “μM;” for “nM;”, “dexamethason” for “dexametason”, “TNF-α,” for “TNF-α”, “rnRNA.” for “mRNA.”

Foxa-2 [6] = test: Nuclear Foxa-2 in perfused livers, immunoblotting; type: in vivo, mice; settings: liver perfusion experiments

## 6xCdx-TkLuc (six Foxa-2 sites of the Cdx-2 gene)
Foxa-2 (transfected); HepG2, decreased by insulin or Akt
  activity (fold activation): 5

## COc1cccc(-c2cc(=O)c3ccccc3o2)c1N [PD98059, reference compound]
Foxa-2 activity
  insulin mediated decrease of Foxa-2 activity: did not influence
Pepck, G6pc and Igfbp-1
  mRNA levels of Pepck, G6pc and Igfbp-1: significantly reduced
Foxa-2 [1]
  subcellular localization of endogenous Foxa-2 / insulin stimulated nuclear exclusion: no effect

## HA-Akt (human Akt1 fused to an N-terminal HA-tag, expressed from pCMV-HA-Akt)
[2]
  phosphorylation in an in vitro kinase assay ([gamma-32P]-ATP, autoradiography): wildtype Foxa-2 was phosphorylated by either Akt or myrAkt
[3]
  phosphorylation in an in vitro kinase assay ([gamma-32P]-ATP, autoradiography): no phosphorylation could be observed using Foxa-2T156A protein as substrate

## IL6: factor with effects on adipocyte differentiation and metabolism
Foxa-2 expression [4]
  De novo expression of Foxa-2: could not be induced
Foxa-2 expression [5]
  Foxa-2 expression: unable to raise

## PEPCK promoter (621 bp) luciferase reporter
Foxa-2 (transfected); HepG2, about 6-fold in FIG. 11c
  activity (fold activation): 5

## Pref-1 promoter (1.3 kb) luciferase reporter
Foxa-2 (transfected); 3T3-L1 luciferase reporter
  activity (fold activation): 6

## Pref-1 promoter reporter, upstream Foxa element deleted
Foxa-2 (transfected); 3T3-L1 luciferase reporter
  activity (% reduction of activity): 50

## TNF-α
Foxa-2 expression [4]
  De novo expression of Foxa-2: could not be induced
Foxa-2 expression [5]
  Foxa-2 expression: unable to raise

## constitutively active Akt, HA-tagged (pCMV-HA-myrAkt)
[2]
  phosphorylation in an in vitro kinase assay ([gamma-32P]-ATP, autoradiography): wildtype Foxa-2 was phosphorylated by either Akt or myrAkt
[3]
  phosphorylation in an in vitro kinase assay ([gamma-32P]-ATP, autoradiography): no phosphorylation could be observed using Foxa-2T156A protein as substrate

## glucagon: hormone tested on Foxa-2 expression and nuclear localization
Foxa-2 expression [4]
  De novo expression of Foxa-2: could not be induced
Foxa-2 expression [5]
  Foxa-2 expression: unable to raise
Foxa-2 [6]
  Foxa-2 nuclear localization: does not affect

## leptin: factor with effects on adipocyte differentiation and metabolism
Foxa-2 expression [4]
  De novo expression of Foxa-2: could not be induced
Foxa-2 expression [5]
  Foxa-2 expression: unable to raise

B1: adiponectin: factor with effects on adipocyte differentiation and metabolism (protein, UniProt Q15848 19-244, looked up)
Adiponectin: ETTTQGPGVLLPLPKGACTGWMAGIPGHPGHNGAPGRDGRDGTPGEKGEKGDPGLIGPKGDIGETGVPGAEGPRGFPGIQGRKGEPGEGAYVYRSAFSVGLETYVTIPNMPIRFTKIFYNQQNHYDGSTGKFHCNIPGLYYFAYHITVYMKDVKVSLFKKDKAMLFTYDQYQENNVDQASGSVLLHLEVGDQVWLQVYGEGERNGLYADNDNDSTFTGFLLYHDTN
Foxa-2 expression [4]
  De novo expression of Foxa-2: could not be induced
Foxa-2 expression [5]
  Foxa-2 expression: unable to raise
